Literature values, collected in US8609138B2, “ω3 fatty acid compound preparation” (Mochida Pharmaceutical Co., Ltd., priority 2010, dated 2013).

Experiments:
[1] = pharmaceutical products; Non-Patent Literatures 2-4
[2] = pH 7.4; Non-Patent Literature 1

SMILES | partition coefficient (octanol-water partition coefficient) [1] | log P7.4; water-octanol partition coefficient at a pH of 7.4 [2]
CC[C@H](C)C(=O)O[C@H]1C[C@H](O)C=C2C=C[C@H](C)[C@H](CC[C@@H](O)C[C@@H](O)CC(=O)O)[C@H]21 [Pravastatin sodium] | −0.33 | 
CC[C@H](C)C(=O)O[C@H]1C[C@H](O)C=C2C=C[C@H](C)[C@H](CC[C@@H](O)C[C@@H](O)CC(=O)O)[C@H]21 [pravastatin] |  | −0.84

Now from value to molecule:

partition coefficient (octanol-water partition coefficient) [1] | log P7.4; water-octanol partition coefficient at a pH of 7.4 [2] | SMILES
−0.3±0.1 |  | CC(C)c1nc(N(C)S(C)(=O)=O)nc(-c2ccc(F)cc2)c1/C=C/[C@@H](O)C[C@@H](O)CC(=O)[O-].CC(C)c1nc(N(C)S(C)(=O)=O)nc(-c2ccc(F)cc2)c1/C=C/[C@@H](O)C[C@@H](O)CC(=O)[O-].[Ca+2] [rosuvastatin calcium]
 | ~-0.33 | CC(C)c1nc(N(C)S(C)(=O)=O)nc(-c2ccc(F)cc2)c1/C=C/[C@@H](O)C[C@@H](O)CC(=O)O [rosuvastatin]
 | 1.60 | CCC(C)(C)C(=O)O[C@H]1C[C@@H](C)C=C2C=C[C@H](C)[C@H](CC[C@@H]3C[C@@H](O)CC(=O)O3)[C@H]21 [simvastatin]
